Earlier results as cited in patent US20070025945A1, “Stabilized pharmaceutical and cosmetic composition of catechins or derivatives thereof” (Anagen Therapeutics, Inc., priority 2005, published 2007).

Legend:
[1] = tested on: 5-alpha-reductase isozyme I / isozyme II; conditions: 5-alpha-reductase isozymes
sebum production = conditions: topical application directly to the forehead
[2] = tested on: teleocidin-induced tumor promotion; conditions: topically applied to skin; mice previously initiated with DMBA

| Compound | activity against isozyme I versus isozyme II [1] | sebum production from the human forehead (sebum production) | teleocidin-induced tumor promotion [2] |
| --- | --- | --- | --- |
| O=C(O[C@@H]1Cc2c(O)cc(O)cc2O[C@@H]1c1ccc(O)c(O)c1)c1cc(O)c(O)c(O)c1 [ECG, (−)-epicatechin-3-gallates] | more active against isozyme I than isozyme II |  |  |
| CCCCC/C=C\C/C=C\C/C=C\CCCCC(=O)O [gamma-linolenic acid] |  | inhibited |  |
| O=C(O[C@@H]1Cc2c(O)cc(O)cc2O[C@@H]1c1cc(O)c(O)c(O)c1)c1cc(O)c(O)c(O)c1 [EGCG, (−)-epigallocatechin-3-gallates] | more active against isozyme I than isozyme II | inhibited | inhibits |
